Test results reported in patent US10130585B2, “Methods of treating and/or preventing cardiovascular disease” (Murray and Poole Enterprises Limited, priority 2013, dated 2018).

Assays:
[1] = tested on: patients with stable coronary disease; test: LoDoCo Trial, colchicine 0.5 mg/day added to standard secondary prevention; type: in vivo, human
Description: This study is described in PCT/AU2013/001261 and is hereby incorporated in its entirety by reference.
All outcomes were evaluated by an experienced adjudicator blinded to the treatment allocation.
Patients with a history of bypass surgery were only eligible if they had undergone bypass surgery more than 10 years before, or had angiographic evidence of graft failure or had undergone stenting since their bypass surgery. All patients signed informed consent before randomization.
The randomization sequence was computer generated, kept concealed from the investigators at all times and was managed by a research assistant who had no involvement in the evaluation or management of study patients. Once the assistant received the consent form, the patients' demographic data were entered into the data base and the investigators and patients were advised in writing of the treatment group to which the patient had been assigned. […] Patients who were intolerant to therapy remained in the study, and were followed in the usual manner and included in the primary intention to treat analysis.
The drug was dispensed by their usual chemist, and if requested, patients were reimbursed for the cost of these scripts. All other treatments were continued as usual.
Patient compliance with treatment and outcome data were collected at routine follow up visits and at the time of any unplanned hospital admission. An acute coronary syndrome (ACS) was defined as either (a) Acute Myocardial Infarction (AMI), as evidenced by acute ischemic chest pain associated with a rise in serum troponin above the upper limit of normal or (b) Unstable Angina (UA), as evidenced by a recent acceleration of the patient's angina unassociated with a rise in serum troponin but associated with angiographic evidence of a change in the patient's coronary anatomy. (Unstable Angina Braunwald classification types IB and IIB). The ACS was characterized as being stent-related if there was evidence of significant in-stent stenosis or acute stent thrombosis. Out of Hospital Cardiac Arrest was defined as either a sudden death as evidenced on the patient's death certificate, or a non-fatal out of hospital cardiac arrest, defined as a recovery from sudden collapse associated with documented asystole, ventricular tachycardia or ventricular fibrillation. Noncardioembolic ischemic stroke was defined as CT or MRI proven ischemic stroke adjudged by the treating neurologist as not being due to atrial fibrillation or intracranial hemorrhage.
The primary efficacy outcome was the composite, ACS, fatal or non-fatal out of hospital cardiac arrest or non-cardio-embolic ischemic stroke. Secondary outcomes were (a) individual components of the primary outcome, and (b) the components of ACS unrelated to stent disease.
The pre-specified study duration was a minimum follow up of two years in all patients. Accordingly the study was closed on May 31, 2012. During May, all living patients were contacted by phone to collect compliance and outcome data from the last date of follow-up. Final outcome data were available in all patients and no patients were lost to follow up.
Summary statistics, including mean and standard deviation were calculated for all baseline characteristics by treatment arm. All time to event outcomes were calculated in days by subtracting the date of randomization from either: (1) the date of event or death; or (2) the trial termination date for those patients not experiencing the defined event. […]

[2] = tested on: patients with a first episode of recurrent pericarditis; conditions: conventional treatment with aspirin plus colchicine 1.0-2.0 mg first day then 0.5-1.0 mg/d for 6 months; cited from earlier work

SMILES: COc1cc2c(c(OC)c1OC)-c1ccc(OC)c(=O)cc1[C@@H](NC(C)=O)CC2 [colchicine, N[5,6,7,9-tetrahydro-1,2,3,10-tetratmethoxy 9-oxobenzo[a]heptalen-7-yl],(S)-acetamide]
- number needed to treat, primary outcome ([1]; colchicine 0.5 mg/day vs control): 11
- patients who died ([1]; colchicine group (n=282), all of non-cardiac causes): 4 patients
- patients reporting early intolerance due to gastrointestinal side effects ([1]; of 282 randomized to colchicine 0.5 mg/day): 11%
- patients with events, on-treatment analysis ([1]; patients compliant and tolerant to therapy beyond the first month): 4.5%
- Out of hospital cardiac arrest and non-cardio-embolic ischemic stroke ([1]; treatment group vs control): also reduced in the treatment group
- recurrence rate, actuarial rate at 18 months [2]: 24.0%
